From publication PMC11206678, “Peptide-Alkoxyamine Drugs: An Innovative Approach to Fight Schistosomiasis: “Digging Their Graves with Their Forks”” (Pathogens, 2024)
Where a name gives a salt, the structure may show the parent alone. Square brackets hold non-standard residues; d marks the D form. Peptide text beside a SMILES is read from it. * marks the point of attachment. Boc = CC(C)(C)OC(=O)*; OBn = c1ccc(CO*)cc1

Legend:
[1] = system: Vero cells; type: cell-based; settings: 48 h
Protocol: A non-cancer line of Vero cells was used to determine the cytotoxicity of the compound against mammalian cells. They were evaluated at a final DMSO concentration of 0.5%. The culture medium was MEM (Dutscher, Bernolsheim, France) supplemented with 10% fetal bovine serum (Fisher Scientific, Illkirch, France), 1X non-essential amino acids (Fisher Scientific, Illkirch, France), 100 U/mL, 100 µg/mL penicillin/streptomycin (Fisher Scientific, Illkirch, France), and 2 mM L-glutamine (Fisher Scientific, Illkirch, France) at 37 °C in a humidified 5% CO2 atmosphere. Vero cells (100 µL of 10^5 cells/mL per well) were plated in 96-well plates for 24 h then treated with 100 µL of compound dilutions (in duplicate) during 48 h. All molecules were tested from 5 nM to 50 µM. Each well was then examined under the microscope to detect any precipitate formation before the supernatant was removed by flicking the plate. A volume of 100 µL of 0.5 mg/mL in MEM from a stock solution at 5 mg/mL of PBS-dissolved MTT (3-(4,5-dimethylthiazol-2-yl)-2,5-diphenyltetrazolium bromide, Sigma Aldrich/Merck, Darmstadt, Germany) was then added to each well [20].
After incubation for 1 h at 37 °C and 5% CO2 the supernatant was removed and 100 µL of DMSO were added. Plates were gently shaken to dissolve formazan crystals resulting from the MTT reduction by living cells and read at 570 nm with the VICTOR Nivo plate reader (Perkin Elmer, Waltham, MA, USA). CC50 values were determined using GraphPad Prism 7 software (San Diego, CA, USA).

[2] = Homolysis kinetics of alkoxyamines by EPR (growth of nitroxide); type: physicochemical; settings: mixture of diastereoisomers; for Homolysis rate constant kd: 0.1 mM alkoxyamine, O2 as alkyl radical scavenger; for Activation energy Ea: by Equation (2) from kd and T, A = 2.4 10^14 s^−1
Protocol: Preparation of alkoxyamines and reference samples. All reagents including anhydrous solvents used for the chemical synthesis were purchased from commercially available sources such as Merck, TCI, and Fluorochem, and were used without further purification. All air and/or water-sensitive reactions were carried out under an argon atmosphere with dry solvents using standard syringe-cannula/septa techniques. Routine monitoring of reactions was performed using Merck Silica gel 60 F254, aluminum-supported TLC plates; spots were visualized using UV light and ethanolic acidic para-anisaldehyde solution or ethanolic phosphomolybdic solution, followed by heating. Purifications by means of column chromatography were performed with Silica gel 60 (230–400 mesh). ^1H, ^13C, and ^19F NMR spectra were obtained in CDCl3, MeOD (with residual H2O), D2O, DMSO-d6, or C6D6 solutions on by using Bruker AC400 (400 MHz) and Bruker AC300 (300 MHz) spectrometers. High-resolution mass spectra (HRMS) have been performed using a SYNAPT G2 HDMS (Waters) mass spectrometer equipped with a pneumatically assisted atmospheric pressure ionization (API) source. The sample was ionized in positive electrospray mode under the following conditions: electrospray voltage: 2.8 kV; port voltage: 20 V; Nebulizing gas flow rate (nitrogen): 100 L/h or in negative electrospray mode under the following conditions: electrospray voltage: −2.27 kV; port voltage: −20 V; Nebulizing gas flow rate (nitrogen): 100 L/h. The mass spectra (MS) were obtained with a time-of-flight (TOF) analyzer. The exact mass measurements were carried out in triplicate with external calibration. Homolysis constants were measured by EPR on an EMX Bruker spectrometer from 10^−4 M samples in tertbutyl benzene or in a mixture of H2O-nPrOH (1:1; v:v).
Kinetic experiments. Kinetics of A1–A7 (Scheme 2) for series L and D are performed by monitoring the growth of nitroxide by Electron Paramagnetic Resonance (X-band EMX Bruker machine) in tert-butylbenzene and a water/n-PrOH (for a good solubility of the alkoxyamine) as solvents and using O2 as alkyl radical scavenger to suppress the back reaction (kc in Scheme 2) as already reported. Homolysis rate constants kd are given by Equation (1) ([nitroxide]∞ = [alkoxyamine]0 = 0.1 mM, see Table S1) and the subsequent activation energies Ea given by Equation (2). (1) lnnitroxide∞−nitroxidet/nitroxide∞=−kd·t, (2) Ea=−RTlnkd/A.

[3] = system: Schistosoma mansoni adult worms; assay: Viability of Schistosoma mansoni adult worms in vitro; type: cell-based, Schistosoma mansoni NMRI strain; settings: 37 °C; for Time to Kill 50% of Parasites / Time to Kill 100% of Parasites / Activity/toxicity towards schistosomes (in words): 100 μg/mL; for Time to Kill 50% of Parasites / Time to Kill 100% of Parasites: adult worms in RPMI 1640/Tween 80/DMSO, observed up to 72 h, duplicate wells; for Activity/toxicity towards schistosomes (in words): adult worms; for time to kill all parasites / time to reach the death of half of the population of worms: Table S1, dose at 100 μg/ml, unit not given in Table S1 (h in Table 2)
Protocol: Experiments on the viability of Schistosoma mansoni adult worms. In vitro tests were performed on Schistosoma mansoni NMRI strains. This parasite is lab maintained on Biomphalaria glabrata (BRE strain) as intermediate mollusc host and Golden Hamster (Janvier Labs, Le Genest-Saint-Isle, France) as definitive vertebrate host. Methods, for molluscs’ and hamsters’ infection and for parasite recovery, were previously described. Adult worms were recovered by hepatic perfusion technique between 42 and 47 days post hamster exposition to parasite larvae. Worms were carefully collected and disposed in 12-well Falcon® plate containing 2 mL of RPMI 1640 (supplemented with L-glutamine and Hepes 25 mM). The plates containing a minimum of 15 worms by well were then placed in an incubator chamber at 37 °C and 5% CO2. The worms sex ratio was almost balanced in each well. The drug was first dissolved in DMSO (Sigma-Aldrich) to give a 100 mg/mL mother solution. Then the stock solution was complemented with Tween 80 and RPMI to obtain the following final ratio dilution: RPMI 1640/Tween 80/DMSO and 1000/0.95/3.8, v/v/v.
All molecules were tested at a final concentration of 100 µg/mL and 10 µg/mL. A negative control consisted in adding the same RPMI 1640/Tween 80/DMSO solution, but without any drug and a positive control consisted in adding praziquantel. All molecules and control were performed in duplicates of well. The worm viability was checked after 1, 2, 3, 4, 5, 6, 7, 8, 24, 48, and 72 h after adding the molecule.

[4] = C–ON bond homolysis in t-BuPh, EPR, T (°C): A1L 128.0, A3L 125.0, A5L 130.0, A6L 125, A7L 126.5, A1D 122.5, A3D 119.8, A5D 130

Structure (SMILES) | CC50 [1] | Homolysis rate constant kd [2, 4] | Homolysis rate constant kd ([2]; C–ON bond homolysis in water/n-PrOH v/v 1:1, EPR, T (°C): A1L 95.1, A3L 94.5, A4L 94.6, A5L 94.0, A6L 94.8, A7L 94.3, A1D 93.5, A3D 92.6, A4D 95.0, A5D 94.6) | Activation energy Ea ([2]; in t-BuPh) | Activation energy Ea ([2]; in water/n-PrOH v/v 1:1) | Time to Kill 50% of Parasites [3] | Time to Kill 100% of Parasites [3] | Activity/toxicity towards schistosomes (in words) [3] | time to kill all parasites [3] | time to reach the death of half of the population of worms [3]
CC(ON1C(C)(C)CCCC1(C)C)c1ccc(NC(=O)[C@@H](Cc2ccccc2)NC(=O)[C@H](NC(=O)[C@@H](Cc2ccccc2)NC(=O)OC(C)(C)C)C(C)C)cc1 (stereo partly drawn) [A3D, tert-butyl ((2R)-1-(((2R)-3-methyl-1-oxo-1-(((2R)-1-oxo-3-phenyl-1-((4-(1-((2,2,6,6-tetramethylpiperidin-1-yl)oxy)ethyl)phenyl)amino)propan-2-yl)amino)butan-2-yl)amino)-1-oxo-3-phenylpropan-2-yl)carbamate] | > 50 µM | 9.6 10^−4 s^−1 | 0.45 10^−4 s^−1 | 31.6 kcal/mol | 31.31 kcal/mol |  |  |  |  | 
CC(ON1C(C)(C)CCCC1(C)C)c1ccc(NC(=O)[C@H](Cc2ccccc2)NC(=O)[C@@H](NC(=O)[C@H](Cc2ccccc2)NC(=O)CCC(=O)O)C(C)C)cc1 (stereo partly drawn) [A7L, 4-(((2S)-1-(((2S)-3-methyl-1-oxo-1-(((2S)-1-oxo-3-phenyl-1-((4-(1-((2,2,6,6-tetramethylpiperidin-1-yl)oxy)ethyl)phenyl)amino)propan-2-yl)amino)butan-2-yl)amino)-1-oxo-3-phenylpropan-2-yl)amino)-4-oxobutanoic acid] |  | 15.0 10^−4 s^−1 |  | 31.45 kcal/mol | 30.93 kcal/mol | 24 h | 48 h | less active |  | 
CC(C)[C@@H](NC(=O)[C@@H](Cc1ccccc1)NC(=O)OC(C)(C)C)C(=O)N[C@H](Cc1ccccc1)C(=O)OCc1ccccc1 [P6D, Benzyl (tert-butoxycarbonyl)-D-phenylalanyl-D-valyl-D-phenylalaninate] (Boc-[dF]-[dV]-[dF]-OBn) | 3.2 µM |  |  |  |  |  |  | unexpectedly toxic | 24 | 4
CC(C)[C@H](NC(=O)[C@H](Cc1ccccc1)NC(=O)OC(C)(C)C)C(=O)N[C@@H](Cc1ccccc1)C(=O)OCc1ccccc1 [P6L, Benzyl (tert-butoxycarbonyl)-L-phenylalanyl-L-valyl-L-phenylalaninate] (Boc-Phe-Val-Phe-OBn) | > 50 µM |  |  |  |  |  |  |  |  | 
CC(C)[C@@H](NC(=O)[C@H](N)Cc1ccccc1)C(=O)N[C@H](Cc1ccccc1)C(=O)OCc1ccccc1 [P8D, (R)-1-(((R)-1-(((R)-1-(benzyloxy)-1-oxo-3-phenylpropan-2-yl)amino)-3-methyl-1-oxobutan-2-yl)amino)-1-oxo-3-phenylpropan-2-aminium trifluoroacetate] (H-[dF]-[dV]-[dF]-OBn) | > 50 µM |  |  |  |  |  |  | unexpectedly toxic | 1 | 1
CC(C)[C@H](NC(=O)[C@@H](N)Cc1ccccc1)C(=O)N[C@@H](Cc1ccccc1)C(=O)OCc1ccccc1 [P8L, (S)-1-(((S)-1-(((S)-1-(benzyloxy)-1-oxo-3-phenylpropan-2-yl)amino)-3-methyl-1-oxobutan-2-yl)amino)-1-oxo-3-phenylpropan-2-aminium trifluoroacetate] (H-Phe-Val-Phe-OBn) | > 50 µM |  |  |  |  | 7 h | 24 h | unexpected toxicity | 24 | 7
CC(C)[C@H](NC(=O)[C@H](Cc1ccccc1)NC(=O)CCC(=O)OCc1ccccc1)C(=O)N[C@@H](Cc1ccccc1)C(=O)OCc1ccccc1 [P9L, Benzyl 4-(((S)-1-(((S)-1-(((S)-1-(benzyloxy)-1-oxo-3-phenylpropan-2-yl)amino)-3-methyl-1-oxobutan-2-yl)amino)-1-oxo-3-phenylpropan-2-yl)amino)-4-oxobutanoate] | > 50 µM |  |  |  |  | 3 h | 5 h | unexpected toxicity | 5 | 3
CCc1ccc(NC(=O)[C@@H](Cc2ccccc2)NC(=O)[C@H](NC(=O)[C@@H](Cc2ccccc2)NC(=O)OC(C)(C)C)C(C)C)cc1 [P21D, Tert-butyl ((R)-1-(((R)-1-(((R)-1-((4-ethylphenyl)amino)-1-oxo-3-phenylpropan-2-yl)amino)-3-methyl-1-oxobutan-2-yl)amino)-1-oxo-3-phenylpropan-2-yl)carbamate] | > 50 µM |  |  |  |  |  |  | unexpectedly toxic | 24 | 5
CCc1ccc(NC(=O)[C@@H](Cc2ccccc2)NC(=O)[C@H](NC(=O)[C@H](N)Cc2ccccc2)C(C)C)cc1 [P22D, (R)-1-(((R)-1-(((R)-1-((4-ethylphenyl)amino)-1-oxo-3-phenylpropan-2-yl)amino)-3-methyl-1-oxobutan-2-yl)amino)-1-oxo-3-phenylpropan-2-aminium trifluoroacetate] | 11 µM |  |  |  |  |  |  | unexpectedly toxic | 24 | 4
